Results from PMC11187126, “Structure and dynamics of the pyroglutamylated RF-amide peptide QRFP receptor GPR103” (Nature Communications, 2024).
Like-named read-outs stand apart in the source and are kept apart here. No end group written: not given here.

Target: T1, GPR103 Q125^3.32A (Homo sapiens, UniProt Q96P65, Q125A)
T1 construct: we used human full-length QRFPR-encoding plasmids; expressed in transfected cells; host or cells: HEK293 cells, pCAGGS vector
T1 sequence (Q96P65 1-431 Q125A): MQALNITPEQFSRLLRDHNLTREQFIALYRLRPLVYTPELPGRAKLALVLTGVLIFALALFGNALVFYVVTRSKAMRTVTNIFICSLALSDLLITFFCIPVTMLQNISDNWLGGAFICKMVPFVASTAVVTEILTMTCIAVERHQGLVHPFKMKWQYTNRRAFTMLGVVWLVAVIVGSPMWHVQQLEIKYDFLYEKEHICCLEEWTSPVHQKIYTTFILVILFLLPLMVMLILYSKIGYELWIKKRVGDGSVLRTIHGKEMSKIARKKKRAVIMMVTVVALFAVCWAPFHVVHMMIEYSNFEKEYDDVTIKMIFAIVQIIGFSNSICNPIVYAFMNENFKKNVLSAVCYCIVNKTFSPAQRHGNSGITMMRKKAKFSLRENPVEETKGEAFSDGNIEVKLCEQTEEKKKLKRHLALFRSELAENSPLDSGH
Test: TGFα shedding assay; Exp. level WT (1:50)
Format: cell-based
Description: For the TGFα shedding assay and the flow cytometry analysis, we used human full-length QRFPR-encoding plasmids. Specifically, GPR103 was N-terminally modified with an HA signal sequence followed by a FLAG epitope and then a flexible linker ([…]; the FLAG epitope is underlined) and inserted into the pCAGGS vector. Plasmid encoding GPR103 mutants were generated using Quickchange Site-Directed Mutagensis kit (Agilent).
The TGFα shedding assay was performed as described previously with minor modifications. Plasmid transfection was performed in a 6-well plate with a mixture of 500 ng (per well in a 6-well plate) AP-TGFα-encoding plasmid and 200 ng GPR103-encoding plasmid. After 1-day culture, the transfected cells were harvested by trypsinization, pelleted by centrifugation at 190 × g for 5 min, and washed once with 5 mM HEPES (pH 7.4)-containing Hank’s Balanced Salt Solution (HBSS). After centrifugation, the cells were resuspended in 8 mL of the HEPES-containing HBSS. The cell suspension was seeded in a 96-well culture plate (cell plate) at a volume of 90 μL (per well hereafter) and incubated in a 37 °C incubator with 5% CO2 for 30 min. […] After spinning the cell plates at 190 × g for 2 min, 80 μL of conditioned media was transferred to an empty 96-well plate (conditioned media (CM) plate). Then, 80 μL of AP reaction solution (10 mM p-nitrophenylphosphate (p-NPP), 120 mM Tris-HCl (pH 9.5), 40 mM NaCl, and 10 mM MgCl2) was dispensed into the cell plates and the CM plates. Absorbance at 405 nm of the plates was measured using a microplate reader (SpectraMax 340 PC384, Molecular Devices) before and after 1-h incubation at room temperature. Ligand-induced AP-TGFα release was calculated by subtracting spontaneous AP-TGFα release signal from ligand-induced AP-TGFα release signal. The AP-TGFα release signals were fitted to a four-parameter sigmoidal concentration–response curve, using the Prism 10 software (GraphPad Prism). For each replicate experiment, the pEC50 parameter (negative logarithmic values of EC50 values) of the individual GPR103 mutants were normalized to that of the wild-type GPR103 performed in parallel, and resulting ∆pEC50 values were used to denote ligand response activity of the mutants. […]
Exp. le vel: WT (1:5 0)Exp. le vel: WT (1:5 0)Exp. le vel: WT (1:5 0)Exp. le vel: WT (1:2 0)Exp. le vel: WT (1:2 0)Exp. le vel: WT (1:1 0) […]
L1 4N - t e r mA F2 5N - t e r mA I 2 6N - t e r mA Y 2 9N - t e r mA C 9 82 .5 7A T10 22 .6 1A Exp . l eve l: WT (1 :5)Exp . l evel : >WT (1 :1)Exp. le vel: WT (1:2 0)Exp. le vel: WT (1:2 0)Exp. le vel: WT (1:5 0)Exp . l eve l: WT (1 :1) […]
Exp. le vel: WT (1:1 0)Exp. le vel: WT (1:2 0) C 1 1 83 .2 5AExp. le vel: WT (1:5 0)Exp. le vel: WT (1:5 0)Exp. le vel: WT (1:2 0)Exp . l eve l: WT (1 :5) […]
Exp. le vel: WT (1:5 0)Exp. le vel: WT (1:1 0)Exp. le vel: WT (1:5 0) E203ECL2AExp . l evel : >WT (1 :1)Exp. le vel: WT (1:5 0)Exp. le vel: WT (1:5 0) […]
Exp . l eve l: WT (1 :1) F28Exp. le vel: WT (1:5 0) C 2 8 56 .4 7AExp. le vel: WT (1:2 0) WExp. le vel: WT (1:2 0) F28Exp. le vel: WT (1:5 0)Exp . l evel : >WT (1 :1) […]
Exp. le vel: WT (1:5 0)Exp. le vel: WT (1:5 0) C 3 2 77 .4 8AExp . l eve l: WT (1 :5)Exp . l evel : >WT (1 :1)Exp . l evel : >WT (1 :1) […]
Suppl eme nt ary Figure 1 | Mutational analysis of GPR103. […]
mutants. Data are presented as mean values ± SEM, normally n=3-5; dots), each performed in triplicate. b-d Cell-surface expression (b) and QRFP26-in-duced activation of GPR103 (c, d) were analyzed by the flow cytometry and the TGFα shedding assay, respectively. From the concentration–response curves (a), Emax (c) and ΔpEC50 (d) values relative to the wild type were calculated. Colors in the mutant bars indicate an expression level matching to that of titrated wild type. Statistical analyses were performed using the ordinary one-way ANOVA followed by Dunnett tests with the expression-matched […]

- Emax (Exp. #1): 46.53 % WT
- Emax (Exp. #2): 25.38 % WT
- Emax (Exp. #3): 32.41 % WT
- Emax (mean, read-out: Emax): 34.8%
- EC50 (n = 3): 282 nM
- Emax (n = 3, read-out: Emax): 35.7 ± 5.1%
Substance: TSGPLGNLAEELNGYSRKKGGFSFRF-NH2 [QRFP26]
